According to patent publication US20060276498A1 (Wyeth, priority 2005, published 2006):
pIC50: −log10 of the molar value.

These molecules were tested against T1, human Cot/Tpl2 kinase (Homo sapiens, UniProt P41279) (assay: Tpl2/Cot kinase assay, GST-MEK1 phosphorylation detected by ELISA (DELFIA Eu)). Conditions: Table 1; 0.4 nM Tpl2, 35 nM GST-MEK1, 50 uM ATP, 1 h at 30° C.
T1 construct: human Cot/Tpl2 kinase construct encoding residues 30-398; 6His (N); made in house; host or cells: Sf9 insect cells (baculovirus system, BD Biosciences)
T1 sequence (P41279 30-398): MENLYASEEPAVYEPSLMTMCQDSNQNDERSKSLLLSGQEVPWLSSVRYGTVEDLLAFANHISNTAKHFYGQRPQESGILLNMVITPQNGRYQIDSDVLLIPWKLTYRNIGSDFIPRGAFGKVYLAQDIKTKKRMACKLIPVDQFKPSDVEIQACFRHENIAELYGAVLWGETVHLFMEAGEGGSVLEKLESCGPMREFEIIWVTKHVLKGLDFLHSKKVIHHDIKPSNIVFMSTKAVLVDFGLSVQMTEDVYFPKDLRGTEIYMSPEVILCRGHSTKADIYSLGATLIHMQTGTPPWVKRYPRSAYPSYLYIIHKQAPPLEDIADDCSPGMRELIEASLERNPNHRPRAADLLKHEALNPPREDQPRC
Format: biochemical
Procedure: Sf9 cells expressing the kinase were lysed in 50 mM NaPhosphate pH=8; 300 mM NaCl; 5 mM imidazole; 0.1 mM EGTA; 25 mM beta-glycerophosphate; 1% TX-100, 1% glycerol; 6 mM beta-mercaptoethanol and protease inhibitors. The lysate was clarified by centrifugation and was loaded onto a Ni-Sepharose column. The column was washed with 50 mM NaPhosphate pH=8; 300 mM NaCl; 15 mM imidazole; 1% glycerol; and 6 mM beta-mercaptoethanol. His-Tpl2 was eluted with 50 mM NaPhosphate pH=8; 300 mM NaCl; 250 mM imidazole; 1% glycerol; and 6 mM beta-mercaptoethanol. The eluted protein was further purified by size exclusion chromatography. Fractions corresponding to monomeric Tpl2 were then used in the assay.
Tpl2/Cot activity was directly assayed using GST-MEK1 as a substrate. GST-MEK1 phosphorylation on serine residues 217 and 221 was detected by ELISA. 0.4 nM Tpl2 was incubated with 35 nM GST-MEK1 in a kinase reaction buffer containing 20 mM MOPS pH=7.2; 50 uM ATP; 20 mM MgCl2; 1 mM DTT; 25 mM β-glycerophosphate; 5 mM EGTA; and 1 mM sodium orthovanadate for 1 h at 30° C. The compounds of the inventions solubilized in 100% DMSO were pre-diluted in assay buffer so that the final concentration of DMSO in the reaction was 1%. The kinase reaction was carried out in 100 ul volume on 96 well plates. The kinase reaction was then stopped with the addition of 100 mM EDTA. […] After a 1 hour incubation at room temperature, the detection plate was washed 4 times with TBST (TBS+0.05% Tween 20) and then incubated for another hour at room temperature with anti phospho-MEK1 antibody (Cell Signaling) 1:1000 in 10 mM MOPS 7.5; 150 mM NaCl; 0.05% Tween 20; 0.1% Gelatin; 0.02% NaN3; and 1% BSA. The detection plate was washed again and incubated for 30 min with DELFIA Europium (Eu) labeled goat anti-rabbit IgG (Perkin-Elmer), 1:4000 in the same buffer used for the primary incubation. After a final wash, Eu detection solution was added to each well and the Eu signal was measured in a Wallac Victor^2 Multilabel Counter. IC50 calculations were preformed using the XLfit software package (IDBS, Guildford, UK).

Compound | pIC50
CC(C)c1ccc(Nc2c(C#N)cnc3cnc(NCCN4CCOCC4)cc23)cc1 [Example 43, 4-[(4-isopropylphenyl)amino]-6-[(2-morpholin-4-ylethyl)amino]-1,7-naphthyridine-3-carbonitrile] | < 4.40
N#Cc1cnc2cnc(NCc3ccccc3)cc2c1Nc1ccc(F)c(Cl)c1 [Example 47, 6-(benzylamino)-4-[(3-chloro-4-fluorophenyl)amino]-1,7-naphthyridine-3-carbonitrile] | 7.00
N#Cc1cnc2cnc(NCCCN3CCOCC3)cc2c1Nc1ccc(F)c(Cl)c1 [Example 49, 4-[(3-chloro-4-fluorophenyl)amino]-6-[(3-morpholin-4-ylpropyl)amino]-1,7-naphthyridine-3-carbonitrile] | 5.52
CC[C@@H](Nc1cc2c(Nc3ccc(F)c(Cl)c3)c(C#N)cnc2cn1)c1ccccc1 [Example 51, 4-[(3-chloro-4-fluorophenyl)amino]-6-{[(1R)-1-phenylpropyl]amino}-1,7-naphthyridine-3-carbonitrile] | 6.39
C[C@@H](O)CNc1cc2c(Nc3ccc(F)c(Cl)c3)c(C#N)cnc2cn1 [Example 55, 4-[(3-chloro-4-fluorophenyl)amino]-6-{[(2R)-2-hydroxypropyl]amino}-1,7-naphthyridine-3-carbonitrile] | 5.82
C[C@@H](Nc1cc2c(Nc3ccc(F)c(Cl)c3)c(C#N)cnc2cn1)c1ccccc1 [Example 59, 4-[(3-chloro-4-fluorophenyl)amino]-6-{[(1R)-1-phenylethyl]amino}-1,7-naphthyridine-3-carbonitrile] | 7.92
N#Cc1cnc2cnc(NC(CN3CCOCC3)c3ccccc3)cc2c1Nc1ccc(F)c(Cl)c1 (stereo not drawn) [Example 60, 4-[(3-chloro-4-fluorophenyl)amino]-6-[(2-morpholin-4-yl-1-phenylethyl)amino]-1,7-naphthyridine-3-carbonitrile] | 5.62
Cc1ccc(Nc2c(C#N)cnc3cnc(NCCN4CCOCC4)cc23)cc1Br [Example 64, 4-[(3-bromo-4-methylphenyl)amino]-6-[(2-morpholin-4-ylethyl)amino]-1,7-naphthyridine-3-carbonitrile] | < 4.40
Cc1ccc(Nc2c(C#N)cnc3cnc(N[C@H](C)c4ccccc4)cc23)cc1Br [Example 65] | 5.21
Cc1ccc(Nc2c(C#N)cnc3cnc(NCc4cccnc4)cc23)cc1Br [Example 66, 4-[(3-bromo-4-methylphenyl)amino]-6-[(pyridine-3-ylmethyl)amino]-1,7-naphthyridine-3-carbonitrile] | < 4.40
C[C@@H](Nc1cc2c(Nc3cc(Cl)cc(Cl)c3)c(C#N)cnc2cn1)c1ccccc1 [Example 68] | 6.03
N#Cc1cnc2cnc(NCc3cccnc3)cc2c1Nc1cc(Cl)cc(Cl)c1 [Example 69, 4-[(3,5-dichlorophenyl)amino]-6-[(pyridin-3-ylmethyl)amino]-1,7-naphthyridine-3-carbonitrile] | 5.39
N#Cc1cnc2cnc(N[C@H]3CCc4ccccc43)cc2c1Nc1ccc(F)c(Cl)c1 [Example 72] | 5.82
N#Cc1cnc2cnc(N[C@@H]3CCc4ccccc43)cc2c1Nc1ccc(F)c(Cl)c1 [Example 73] | 6.37
CCN1CCC[C@H]1CNc1cc2c(Nc3ccc(F)c(Cl)c3)c(C#N)cnc2cn1 [Example 74] | 6.74
CC#Cc1cccc(Nc2c(C#N)cnc3cnc(NCCN4CCOCC4)cc23)c1 [Example 79, 6-(2-morpholinoethylamino)-4-(3-(prop-1-ynyl)phenylamino)-1,7-naphthyridine-3-carbonitrile] | < 5.00
COC(=O)c1cccc(Nc2c(C#N)cnc3cnc(NCCN4CCOCC4)cc23)c1 [Example 83, Methyl 3-(3-cyano-6-(2-morpholinoethylamino)-1,7-naphthyridin-4-ylamino)benzoate] | < 5.00

More lines, now with the values ahead:

pIC50 | Compound
6.52 | N#Cc1cnc2cnc(NCCN3CCOCC3)cc2c1Nc1ccc(Oc2ccccc2)cc1 [Example 41, 6-[(2-morpholin-4-ylethyl)amino]-4-[(4-phenoxyphenyl)amino]-1,7-naphthyridine-3-carbonitrile]
< 4.40 | N#Cc1cnc2cnc(NCCN3CCOCC3)cc2c1Nc1ccc2[nH]ccc2c1 [Example 44, 4-(1H-indol-5-ylamino)-6-[(2-morpholin-4-ylethyl)amino]-1,7-naphthyridine-3-carbonitrile]
4.70 | CN1CCN(CCCNc2cc3c(Nc4ccc(F)c(Cl)c4)c(C#N)cnc3cn2)CC1 [Example 45, 4-[(3-chloro-4-fluorophenyl)amino]-6-{[3-(4-methylpiperazin-1-yl)propyl]amino}-1,7-naphthyridine-3-carbonitrile]
5.30 | CN(C)CCCNc1cc2c(Nc3ccc(F)c(Cl)c3)c(C#N)cnc2cn1 [Example 48, 4-[(3-chloro-4-fluorophenyl)amino]-6-{[3-(dimethylamino)propyl]amino}-1,7-naphthyridine-3-carbonitrile]
5.15 | C[C@@H](Nc1cc2c(Nc3ccc(F)c(Cl)c3)c(C#N)cnc2cn1)[C@@H](O)c1ccccc1 [Example 53, 4-[(3-chloro-4-fluorophenyl)amino]-6-{[(1R, 2S)-2-hydroxy-1-methyl-2-phenylethyl]amino}-1,7-naphthyridine-3-carbonitrile]
5.89 | C[C@H](Nc1cc2c(Nc3ccc(F)c(Cl)c3)c(C#N)cnc2cn1)[C@H](O)c1ccccc1 [Example 54, 4-[(3-chloro-4-fluorophenyl)amino]-6-{[(1S, 2R)-2-hydroxy-1-methyl-2-phenylethyl]amino}-1,7-naphthyridine-3-carbonitrile]
5.44 | C[C@H](O)CNc1cc2c(Nc3ccc(F)c(Cl)c3)c(C#N)cnc2cn1 [Example 56, 4-[(3-chloro-4-fluorophenyl)amino]-6-{[(2S)-2-hydroxypropyl]amino}-1,7-naphthyridine-3-carbonitrile]
4.44 | C[C@H](Nc1cc2c(Nc3ccc(F)c(Cl)c3)c(C#N)cnc2cn1)c1ccccc1 [Example 57, 4-[(3-chloro-4-fluorophenyl)amino]-6-{[(1S)-1-phenylethyl]amino}-1,7-naphthyridine-3-carbonitrile]
5.43 | N#Cc1cnc2cnc(N[C@H](CN3CCOCC3)c3ccccc3)cc2c1Nc1ccc(F)c(Cl)c1 [Example 58, 4-[(3-chloro-4-fluorophenyl)amino]-6-{[(1S)-2-morpholin-4-yl-1-phenylethyl]amino}-1,7-naphthyridine-3-carbonitrile]
4.98 | N#Cc1cnc2cnc(NCc3c(N)cccc3F)cc2c1Nc1ccc(F)c(Cl)c1 [Example 61, 6-[(2-amino-6-fluorobenzyl)amino]-4-[(3-chloro-4-fluorophenyl)amino]-1,7-naphthyridine-3-carbonitrile]
< 4.40 | N#Cc1cnc2cnc(NCc3cccnc3)cc2c1Nc1ccc(Cl)c(Cl)c1 [Example 63, 4-[(3,4-dichlorophenyl)amino]-6-[(pyridin-3-ylmethyl)amino]-1,7-naphthyridine-3-carbonitrile]
5.38 | N#Cc1cnc2cnc(NCCN3CCOCC3)cc2c1Nc1cc(Cl)cc(Cl)c1 [Example 67, 4-[(3,5-dichlorophenyl)amino]-6-[(2-morpholin-4-ylethyl)amino]-1,7-naphthyridine-3-carbonitrile]
5.82 | N#Cc1cnc2cnc(N[C@@H]3CCCc4ccccc43)cc2c1Nc1ccc(F)c(Cl)c1 [Example 70]
5.41 | N#Cc1cnc2cnc(N[C@H]3CCCc4ccccc43)cc2c1Nc1ccc(F)c(Cl)c1 [Example 71]
5.15 | CCN1CCC[C@@H]1CNc1cc2c(Nc3ccc(F)c(Cl)c3)c(C#N)cnc2cn1 [Example 75]
5.15 | N#Cc1cnc2cnc(NCCN3CCOCC3)cc2c1Nc1cccc(I)c1 [Example 78, 4-(3-iodophenylamino)-6-(2-morpholinoethylamino)-1,7-naphthyridine-3-carbonitrile]
< 5.00 | N#Cc1cnc2cnc(NCCN3CCOCC3)cc2c1Nc1cccc(-c2ccco2)c1 [Example 80, 4-(3-(furan-2-yl)phenylamino)-6-(2-morpholinoethylamino)-1,7-naphthyridine-3-carbonitrile]
6.57 | N#Cc1cnc2cnc(NCCN3CCOCC3)cc2c1Nc1cccc([N+](=O)[O-])c1 [Example 81, 6-(2-morpholinoethylamino)-4-(3-nitrophenylamino)-1,7-naphthyridine-3-carbonitrile]
< 5.00 | N#Cc1cnc2cnc(NCCN3CCOCC3)cc2c1Nc1cccc(N)c1 [Example 82, 4-(3-aminophenylamino)-6-(2-morpholinoethylamino)-1,7-naphthyridine-3-carbonitrile]
